Experimental data: patent publication EP3572411A1, “THIAZOLE DERIVATIVES AS METALLO-BETA-LACTAMASE INHIBITORS” (Antabio SAS, priority 2018, dated 2019)
Where two headings read alike, the source gives them in different places.

Columns and labels:
[1] = system: NTBC055 (E. Coli strain expressing VIM-1); test: Antimicrobial susceptibility testing (broth micro-dilution, Meropenem potentiation); format: cell-based; details: MIC of Meropenem with compound at constant 8 µg/mL; CAMHB, 18-20 hours, 37°C
Description: (§1) Antimicrobial susceptibility testing: The operation is carried out using the 'broth micro-dilution method' according to the protocols M07-A8 established by the Clinical Laboratory Standards Institute (CLSI). Serial dilutions of the β-lactam antibiotic (Meropenem) are prepared in 96-well plates in cation-adjusted Mueller-Hinton broth (CAMHB); the concentration range is defined from 0.03 mg/L to 512 mg/L. The compounds are added at a constant concentration of 8 µg/mL. A bacterial inoculum of each strain (clinical isolates) is adjusted to a 0.5 McFarland turbidity standard in physiologic serum (0.9 % NaCl), then diluted 1:100 in CAMHB and added to each well to give a final bacterial cell number of 5x10^5 CFU/well. After incubation for 18-20 hours in a heating chamber at 37°C, the growth inhibition is evaluated by the absence of any bacterial development.
(§2) The compounds of Table 2 are added at a constant concentration of 8 µg/mL. The clinical strains used in these potentiation experiments are NTBC020 (E. coli strain expressing NDM-1, TEM-1 and CTX-M-15); NTBC035-2 (K. pneumoniae strain expressing NDM-1, CMY-4 and SHV-11); NTBC104-1 (K. pneumoniae strain expressing NDM-1 and SHV-11); NTBC123 (K. pneumoniae strain expressing NDM-1); NTBC018 (C. freundii strain expressing VIM-2); NTBC024 (K. pneumoniae strain expressing VIM-19, TEM-1 and CTX-M-3); NTBC042 (E. coli strain expressing VIM-1, TEM-1 , CTX-M-15, SHV-12); NTBC055 (E. Coli strain expressing VIM-1); NTBC062 (K. pneumoniae strain expressing IMP-1 and TEM-1) and NTBC039 (K. oxytoca strain expressing IMP-28). • For NDM-1 the Ki values of < 0.05 µM are designated (A); Ki values of 0.05 - 0.2 µM are designated (B); Ki values of 0.2 - 0.4 µM are designated (C). • For VIM-1 the Ki values of < 0.2 µM are designated (A); Ki values of 0.2 - 0.5 µM are designated (B); Ki values of 0.5 - 0.8 µM are designated (C). • For VIM-2 the Ki values of < 0.02 µM are designated (A); Ki values of 0.02 - 0.05 µM are designated (B); Ki values of 0.05 - 0.2 µM are designated (C). • For IMP-1 the Ki values of < 0.5 µM are designated (A); Ki values of 0.5 - 1 µM are designated (B); Ki values of 1 - 8 µM are designated (C). • MIC values of < 1 µg/mL are designated (A); MIC values of 1 - 2 µg/mL are designated (B); • MIC values of 2 - 128 µg/mL are designated (C). Table 1. Ki results

[2] = system: NTBC035-2 (K. pneumoniae strain expressing NDM-1, CMY-4 and SHV-11); test: as above; format: cell-based; details: MIC of Meropenem with compound at constant 8 µg/mL; CAMHB, 18-20 hours, 37°C
Description: as §1, §2

[3] = system: NTBC020 (E. coli strain expressing NDM-1, TEM-1 and CTX-M-15); test: as above; format: cell-based; details: MIC of Meropenem with compound at constant 8 µg/mL; CAMHB, 18-20 hours, 37°C
Description: as §1, §2

[4] = system: NTBC042 (E. coli strain expressing VIM-1, TEM-1 , CTX-M-15, SHV-12); test: as above; format: cell-based; details: MIC of Meropenem with compound at constant 8 µg/mL; CAMHB, 18-20 hours, 37°C
Description: as §1, §2

[5] = system: NTBC104-1 (K. pneumoniae strain expressing NDM-1 and SHV-11); test: as above; format: cell-based; details: MIC of Meropenem with compound at constant 8 µg/mL; CAMHB, 18-20 hours, 37°C
Description: as §1, §2

[6] = system: NTBC123 (K. pneumoniae strain expressing NDM-1); test: as above; format: cell-based; details: MIC of Meropenem with compound at constant 8 µg/mL; CAMHB, 18-20 hours, 37°C
Description: as §1, §2

[7] = system: NTBC018 (C. freundii strain expressing VIM-2); test: as above; format: cell-based; details: MIC of Meropenem with compound at constant 8 µg/mL; CAMHB, 18-20 hours, 37°C
Description: as §1, §2

[8] = system: NTBC039 (K. oxytoca strain expressing IMP-28); test: as above; format: cell-based; details: MIC of Meropenem with compound at constant 8 µg/mL; CAMHB, 18-20 hours, 37°C
Description: as §1, §2

[9] = system: NTBC024 (K. pneumoniae strain expressing VIM-19, TEM-1 and CTX-M-3); test: as above; format: cell-based; details: MIC of Meropenem with compound at constant 8 µg/mL; CAMHB, 18-20 hours, 37°C
Description: as §1, §2

[10] = system: NTBC062 (K. pneumoniae strain expressing IMP-1 and TEM-1); test: as above; format: cell-based; details: MIC of Meropenem with compound at constant 8 µg/mL; CAMHB, 18-20 hours, 37°C
Description: as §1, §2

IMP-1 = molecular target: T1, IMP-1 (Serratia marcescens, UniProt P52699); test: In vitro enzyme inhibition assay (imipenem hydrolysis, UV 299 nm); format: biochemical
T1 construct: VIM-1; VIM-2
Description: (§3) In vitro enzyme inhibition assays: Enzyme inhibition assays are performed using purified MBL enzymes (NDM-1; VIM-1; VIM-2; IMP-1) in 10mM HEPES buffer pH 7.5 in 96-well microtiter plates. Imipenem (300µM) is used as substrates and its hydrolysis is followed at UV 299 nm during 10mn every 30 seconds using a Perkin Elmer Envision UV fluorescence plate reader. Hydrolysis rate data in presence of a range of inhibitors are analysed using Dotmatics database software and calculated IC50 values are converted to Ki values using the Cheng-Prusoff equation. Ki = IC50 / (1+([S]/Km) and where the Km values for […] are 70 µM, 1.5 µM, 9 µM and 25 µM respectively. Compound dilution is performed in DMSO. Mean Ki values from multiple experiments are presented. Results are shown in Table 1.

NDM-1 = molecular target: T2, NDM-1 (Klebsiella pneumoniae, UniProt C7C422); test: as above; format: biochemical
T2 construct: VIM-1; VIM-2
Description: as §3

VIM-2 = molecular target: T3, VIM-2 (Escherichia coli, UniProt Q5U7L7); test: as above; format: biochemical
T3 construct: VIM-1; VIM-2
Description: as §3

VIM-1 = molecular target: T4, VIM-1 (Pseudomonas aeruginosa, UniProt A0A0F7KYQ8); test: as above; format: biochemical
T4 construct: VIM-1; VIM-2; IMP-1)
Description: as §3

[11] = purified enzyme, 10mM HEPES pH 7.5, Imipenem 300µM; mean Ki from IC50 by Cheng-Prusoff; read-out: Ki (µM) IMP-1
[12] = purified enzyme, 10mM HEPES pH 7.5, Imipenem 300µM; mean Ki from IC50 by Cheng-Prusoff; read-out: Ki (µM) NDM-1
[13] = purified enzyme, 10mM HEPES pH 7.5, Imipenem 300µM; mean Ki from IC50 by Cheng-Prusoff; read-out: Ki (µM) VIM-2
[14] = purified enzyme, 10mM HEPES pH 7.5, Imipenem 300µM; mean Ki from IC50 by Cheng-Prusoff; read-out: Ki (µM) VIM-1
[15] = read-out: Ki (µM) IMP-1; purified enzyme, 10mM HEPES pH 7.5, Imipenem 300µM; mean Ki from IC50 by Cheng-Prusoff
[16] = read-out: Ki (µM) NDM-1; purified enzyme, 10mM HEPES pH 7.5, Imipenem 300µM; mean Ki from IC50 by Cheng-Prusoff
[17] = read-out: Ki (µM) VIM-2; purified enzyme, 10mM HEPES pH 7.5, Imipenem 300µM; mean Ki from IC50 by Cheng-Prusoff
[18] = read-out: Ki (µM) VIM-1; purified enzyme, 10mM HEPES pH 7.5, Imipenem 300µM; mean Ki from IC50 by Cheng-Prusoff

T1 sequence (P52699 19-246, looked up, species assumed): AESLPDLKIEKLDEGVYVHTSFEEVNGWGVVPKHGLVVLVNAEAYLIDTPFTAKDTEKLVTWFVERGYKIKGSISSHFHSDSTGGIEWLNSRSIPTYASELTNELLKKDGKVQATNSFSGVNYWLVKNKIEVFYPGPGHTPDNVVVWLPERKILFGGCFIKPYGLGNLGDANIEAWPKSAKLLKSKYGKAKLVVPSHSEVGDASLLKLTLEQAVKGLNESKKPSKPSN
T2 sequence (C7C422 29-270, looked up): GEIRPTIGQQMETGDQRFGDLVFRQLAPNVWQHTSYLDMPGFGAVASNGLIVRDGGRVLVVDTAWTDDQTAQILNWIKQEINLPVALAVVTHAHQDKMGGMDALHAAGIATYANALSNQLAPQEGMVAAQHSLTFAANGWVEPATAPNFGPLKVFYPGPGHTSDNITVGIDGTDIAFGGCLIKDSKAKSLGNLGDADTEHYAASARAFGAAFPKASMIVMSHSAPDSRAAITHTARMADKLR

Molecule | MIC Strain NTBC055 [1] | MIC Strain NTBC035-2 [2] | MIC Strain NTBC020 [3] | MIC Strain NTBC042 [4] | MIC Strain NTBC104-1 [5] | MIC Strain NTBC123 [6] | MIC Strain NTBC018 [7] | MIC Strain NTBC039 [8] | MIC Strain NTBC024 [9] | MIC Strain NTBC062 [10] | Ki (IMP-1; [11]) | Ki (NDM-1; [12]) | Ki (VIM-2; [13]) | Ki (VIM-1; [14]) | Ki (IMP-1; [15]) | Ki (NDM-1; [16]) | Ki (VIM-2; [17]) | Ki (VIM-1; [18])
3-(3-carbamimidamidopropyl)-1-[({4-[(4-carboxy-1,3-thiazol-5-yl)sulfamoyl]-2-fluorophenyl}carbamoyl)methyl]-1H-imidazol-3-ium [Example 17] | (B) (MIC values of 1 - 2 µg/mL are designated (B)) | (B) (MIC values of 1 - 2 µg/mL are designated (B)) | (C) (MIC values of 2 - 128 µg/mL are designated (C)) | d(B) (MIC values of 1 - 2 µg/mL are designated (B)) | (C) (MIC values of 2 - 128 µg/mL are designated (C)) | (C) (MIC values of 2 - 128 µg/mL are designated (C)) | (A) (MIC values of < 1 µg/mL are designated (A)) | (C) (MIC values of 2 - 128 µg/mL are designated (C)) | (B) (MIC values of 1 - 2 µg/mL are designated (B)) | (B) (MIC values of 1 - 2 µg/mL are designated (B)) | 1 to 8 µM | < 0.05 µM | < 0.02 µM | < 0.2 µM |  |  |  | 
3-[({4-[(4-carboxy-1,3-thiazol-5-yl)sulfamoyl]-2-fluorophenyl}carbamoyl)methyl]-1-[2-(trimethylammonio)ethyl]imidazol-1-ium [Example 21] | (B) (MIC values of 1 - 2 µg/mL are designated (B)) | (C) (MIC values of 2 - 128 µg/mL are designated (C)) | (C) (MIC values of 2 - 128 µg/mL are designated (C)) | (B) (MIC values of 1 - 2 µg/mL are designated (B)) | (B) (MIC values of 1 - 2 µg/mL are designated (B)) | (C) (MIC values of 2 - 128 µg/mL are designated (C)) | (B) (MIC values of 1 - 2 µg/mL are designated (B)) | (B) (MIC values of 1 - 2 µg/mL are designated (B)) | (C) (MIC values of 2 - 128 µg/mL are designated (C)) | (B) (MIC values of 1 - 2 µg/mL are designated (B)) | 1 to 8 µM | < 0.05 µM | < 0.02 µM | < 0.2 µM |  |  |  | 
C[n+]1ccn(CC(=O)Nc2c(F)cc(S(=O)(=O)Nc3scnc3C(=O)[O-])cc2F)n1 [Example 23, 1-[({4-[(4-carboxy-1,3-thiazol-5-yl)sulfamoyl]-2,6-difluorophenyl}carbamoyl)methyl]-3-methyl-1H-1,2,3-triazol-3-ium] |  |  |  |  |  |  |  |  |  |  |  |  |  |  | 1 to 8 µM | 0.05 to 0.2 µM | 0.05 to 0.2 µM | 0.2 to 0.5 µM
CC[n+]1ccn(CC(=O)Nc2ccc(S(=O)(=O)Nc3scnc3C(=O)[O-])cc2F)n1 [Example 24, 1-[({4-[(4-carboxy-1,3-thiazol-5-yl)sulfamoyl]-2-fluorophenyl}carbamoyl)methyl]-3-ethyl-1H-1,2,3-triazol-3-ium] |  |  |  |  |  |  |  |  |  |  |  |  |  |  | 0.5 to 1 µM | 0.05 to 0.2 µM | 0.05 to 0.2 µM | 0.2 to 0.5 µM
C[n+]1cnn(CC(=O)Nc2ccc(S(=O)(=O)Nc3scnc3C(=O)[O-])cc2F)c1 [Example 25, 1-[({4-[(4-carboxy-1,3-thiazol-5-yl)sulfamoyl]-2-fluorophenyl}carbamoyl)methyl]-4-methyl-1H-1,2,4-triazol-4-ium] |  |  |  |  |  |  |  |  |  |  |  |  |  |  | 1 to 8 µM | 0.05 to 0.2 µM | 0.05 to 0.2 µM | 0.2 to 0.5 µM
C[n+]1nnn(CC(=O)Nc2ccc(S(=O)(=O)Nc3scnc3C(=O)[O-])cc2F)c1N [Example 26, 5-amino-1-[({4-[(4-carboxy-1,3-thiazol-5-yl)sulfamoyl]-2-fluorophenyl}carbamoyl)methyl]-4-methyl-1H-1,2,3,4-tetrazol-4-ium] |  |  |  |  |  |  |  |  |  |  |  |  |  |  | 0.5 to 1 µM | < 0.05 µM | 0.05 to 0.2 µM | 0.2 to 0.5 µM
